From patent publication US20040214891A1, “Method for inhibiting pathogenic bacteria and fungi growth and microbicidal composition” (priority 2003, published 2004)

Legend:
bacteria tested = assay: bactericidal activity of TauBr compared with TauCl at pH above 7; format: cell-based
Propionibacterium acnes = assay: microbicidal activity of TauBr solution, incubation with bacteria then colony count; format: cell-based; conditions: Cutibacterium acnes, 0.5 h, 30 minutes incubation at room temperature, range tested 1-1000 μM, read-out: inhibitory concentration (MIC)
Method: (§1) For research purposes, two bacterial strains commonly found on the human skin were chosen: Propionibacterium acnes (causing acne) and Staphylococcus epidermides (being a part of physiological flora of the skin). Selected microorganisms were lyophilized and kept at room temperature. To prepare strain cultures for immune research the lyophilisate was dissolved in 0.5 ml of 0.9% NaCl solution. The mixture was stirred and seeded on a growth medium. Incubation was conducted in anaerobic conditions at 37° C. for 48-72 hrs. A suspension of bacteria at a concentration of 5×10^9 CFU/ml was then prepared.
(§2) In order to assess the microbicidal activity of the TauBr solution, the Proponibacterium acnes and the Staphylococcus epidermides bacteria were incubated in closed tubes with TauBr solution. The range of concentrations tested was 1-1000 μM. The incubation was conducted at room temperature for 30 minutes. When this process was completed, bacteria were seeded onto a growth medium. After an appropriate period of time the number of developed colonies were counted. Next, estimation of the susceptibility of the Proponibacterium acnes and Staphylococcus epidermides bacteria to the agent tested [TauBr] was determined.

[1] = test system: Staphylococcus epidermidis; assay: as above; format: cell-based; conditions: 0.5 h, 30 minutes incubation at room temperature, range tested 1-1000 μM, read-out: inhibitory concentration (MIC)
Method: as §1, §2

bacteria on the skin [2] = assay: imprinting method with Rodac plates on dorsal skin of volunteers, solutions on gauze pads; format: in vivo, human; conditions: 30 minutes
Text: In order to conduct further tests to ascertain the antibacterial activity of the formulation containing taurine bromamine and prepared by the method described above, the imprinting method was chosen with use of Rodac plates with an area of 25 cm^2. For the purposes of study a Scheadler Agar Base medium produced by the firm Dico, catalogue number 212189, was used with addition of 5% ram blood. The medium was poured steadily onto the Rodac plates in aseptic conditions until a convex meniscus appeared. Before being applied, the medium was kept in enclosed conditions within a fridge at a temperature of ca. +4° C. and was used in a time not exceeding 7 days from the date of its preparation.
Tests for the antibacterial activity of taurine bromamine were conducted by performing 5 imprints of the dorsal skin on time at each of the patients examined. The skin area, on which the tests were to be performed, was determined in advance and marked with the numbers 1-5. […]
At the site marked 1—a gauze pad saturated with 0.9% inj. solution of NaCl (Polfa Lublin), which was a control substance without antibacterial activity was applied to the skin. […] Wherever possible, all the cultivated colonies of relatively aerobic and anaerobic bacteria were counted, to provide a figure for the concentration per cm^2 of the skin. […]

bacteria on the skin [3] = assay: imprinting method on skin of volunteers, gel, cream and powder preparations; format: in vivo, human; conditions: above 5 mM taurine bromamine; for example Staphylococcus epidermides
Method: Further studies of the antibacterial activity of taurine bromamine were conducted using a gel, a cream and a powder. In these tests, applications with a semisolid consistency and plastic features were made, called hereinafter, pharmaceutical or cosmetic preparations or compositions, particularly a taurine bromamine solution in an ethyl-cellulose gel with pH 5-pH 7, a cetomacrogol cream with pH 5-pH 7 and a powder suspension in a taurine bromamine solution.
The powder suspension in taurine bromamine solution was prepared on a base of liquid powder changing the proportions of the components by weight. The suspension consisted of, by weight: 14.0-60.0% of 10 mM Taurine bromamine solution, 10.0-24.0% of talc, 14.0-40.0% of glycerol, 5.0-30.0% of distilled water and 0.5-2.0% of menthol. The constituents of the suspension were stirred thoroughly until an homogenous dispersion of the solid phase was obtained. […]
The preparations were left on the skin area for 30 minutes and then the plates were pressed down so that the site exposed to the activity of the various substances was imprinted centrally on the plate. […] Wherever it was possible, all cultivated colonies of relatively aerobic bacteria and anaerobic bacteria were counted, giving their occurrence per 1 cm^2 of the skin. […]

Compound	selective bactericidal properties (variable susceptibility of strains) (bacteria tested)	bactericidal properties (bacteria tested; pH above 7, subcytotoxic concentrations for mammalian cells)	MIC (Propionibacterium acnes)	MIC [1]	bactericidal activity relative to TauCl (bacteria tested; especially at pH above 7)	bacteria destroyed (bacteria tested; pH above 7)	bacterial concentration on skin after treatment (bacteria on the skin [2]; 5 mM solution in buffer pH 7, decrease from uncountable level of ca 10^4 CFU/cm^2)	number of bacteria on the skin area (bacteria on the skin [2]; 4-7 mM solution in buffer pH 5-pH 7, all patients)	effect on bacterial flora of normal skin (bacteria on the skin [3])
O=S(=O)(O)CCNCl [TauCl, N-chloro taurine, reference compound]	no such selective bactericidal properties	no bactericidal properties							
O=S(=O)(O)CCNBr [TauBr, N-bromo taurine]	Variable susceptibility of the strains		< 32 µM	> 125 µM	much stronger than TauCl	99%	10^1-10^2 CFU/cm^2	considerable diminution	all the bacterial flora is destroyed
